From US20230285577A1, “POLYSACCHARIDE DERIVATIVE, POLYSACCHARIDE DERIVATIVE-DRUG CONJUGATE, AND METHOD FOR PRODUCING SAME” (priority 2020, published 2023)

Legend:
[1] = system: AB22 cells (mouse mesothelioma cells); test: Cell toxicity evaluation (WST assay) of HA-ABA-DOX in AB22; format: cell-based; conditions: 48 hours; for Cell growth inhibition effect (cell viability): DOX 10^−3 to 100 μg/mL
Experimental: As with the HA-ABA, the cell toxicity of HA-ABA-DOX in AB22 cells (mouse mesothelioma cells) was evaluated by WST assay.
Specifically, AB22 cells (mouse mesothelioma cells) were seeded on 24-well plates and incubated for 24 hours. The medium was then replaced with media having […] dissolved at different DOX concentrations (10^−3 μg/mL, 10^−2 μg/mL, 10^−1 μg/mL, 1 μg/mL, 10 μg/mL, 100 μg/mL). Cell viability (%) 48 hours after sample addition was then measured by WST-8 assay (Cell Counting Kit-8 Dojindo).
For purposes of comparison as a control test, cell toxicity was also evaluated using free DOX in place of HA-ABA-DOX.

[2] = Release test of PMX from HA-ABA-PMX (dialysis tube, PBS); format: physicochemical
Experimental: The release behavior or PMX from HA-ABA-PMX at different pH values was investigated using a dialysis tube (MWCO: 1 kDa). […] The external solution (sustained release solution) was collected at specific time points, and new PBS was substituted for the entire amount. The drug concentration in the collected external solution (sustained release solution) was measured by UV-vis, and the release rate of the drug PMX was calculated.

[3] = system: AB22 cells (mouse mesothelioma cells); test: Cell toxicity evaluation (WST assay) of HA-ABA-PMX in AB22; format: cell-based; conditions: 48 hours; for Cell growth inhibition effect (cell viability): PMX 10^−4 to 10 μg/mL
Experimental: (§1) As with the HA-ABA, the cell toxicity of HA-ABA-PMX in MeT-5A (human mesothelial cell line) and AB22 cells (mouse mesothelioma cells) was evaluated by WST assay.
(§2) Specifically, MeT-5A (human mesothelial cell line) and AB22 cells (mouse mesothelioma cells) were seeded on 24-well plates and incubated for 24 hours. The medium was then replaced with medium having HA-ABA-PMX dissolved at different PMX concentrations (10^−4 μg/mL, 10^−3 μg/mL, 10^−2 μg/mL, 10^−1 μg/mL, 1 μh/mL, 10 μg/mL). Cell viability (%) 48 hours after sample addition was then measured by WST-8 assay (Cell Counting Kit-8, Dojindo).

[4] = system: MeT-5A (human mesothelial cell line); test: Cell toxicity evaluation (WST assay) of HA-ABA-PMX in MeT-5A; format: cell-based; conditions: 48 hours; for Cell growth inhibition effect (cell viability): PMX 10^−4 to 10 μg/mL
Experimental: as §1, §2

[5] = Release test of DOX from HA-ABA-DOX (dialysis tube, PBS); format: physicochemical; conditions: PBS 37° C., pH 5.0, 6.0, 7.4
Experimental: Release of DOX from HA-ABA-DOX under different pH conditions was investigated in the same manner as in Example II-2. Specifically, 1 mL of an aqueous solution of the HA-ABA-DOX (1 mg/mL) obtained in Example II-3 above was placed in a dialysis tube (MWCO: 1 kDa), and shaken at 50 rpm while being incubated with 79 mL of PBS (37° C., pH=5.0, 6.0 7.4). The external solution (sustained release solution) was collected at specific time points, and new PBS was substituted for the entire amount. The drug concentration in the collected external solution (sustained release solution) was measured by UV-vis, and the release rate of the drug DOX was calculated.

[6] = Release test of Van from AL-ABA-Van solution (dialysis membrane, PBS); format: physicochemical
Experimental: The release behavior or Van from an AL-ABA-Van solution at different pH values was investigated using a dialysis membrane (pore size: 50 kDa). Specifically, 1 mL of an AL-ABA-Van solution of the AL-ABA-Van obtained in Example I-7 above dissolved in […] of pure water was injected into a dialysis membrane cut to 9 cm, and both ends of the dialysis membrane were tied with kite thread. This was placed in an 80 mL security, container, 79 mL of PBS solution was added, and the mixture was stirred at the maximum rotational speed with a 1 cm stirrer tip in a 37° C. thermostatic tank. 1.0 mL samples were taken from the solution in the security container at specific time points (1, 2, 3, 4, 6, 8, 12, 24, and 48 hours). The sample solutions were subjected to UV-vis spectrum measurement, the drug concentration in the solutions was assayed based on absorbance, and the release rate of the drug Van (vancomycin release %) was calculated. The above measurements were conducted with pH 5.0, pH 6.0 and pH 7.4 PBS solutions (n=4 at each pH).
For purposes of comparison as control tests, the same release testing was also performed with the AL-ABA-Van solution replaced by a mixed solution (AL+Van) of sodium alginate and vancomycin obtained by dissolving 3 mg/mL of sodium alginate (AL) (IL-6G, viscosity 50 to 80 mPa·s (1%), manufactured by Kimica Co., Ltd.) and 8.6 mg/mL of vancomycin (Van) in pure water, and by a solution (Van only) obtained by dissolving 8.6 mg/mL of vancomycin (Van) in pure water.

Question: Which “Cell growth inhibition effect (cell viability)” value (“Cell growth inhibition effect” for short) [1] does the source give for `COc1cccc2c1C(=O)c1c(O)c3c(c(O)c1C2=O)C[C@@](O)(C(=O)CO)C[C@@H]3O[C@H]1C[C@H](N)[C@H](O)[C@H](C)O1` [free DOX, Doxorubicin, reference compound] here?
Answer: dose-dependent cell growth inhibition effects

Question: With `Nc1nc2[nH]cc(CCc3ccc(C(=O)N[C@@H](CCC(=O)O)C(=O)O)cc3)c2c(=O)[nH]1` [Free PMX, Pemetrexed, reference compound] as the compound, how does the PMX released ([2]; control solutions, within 2 hours) read?
Answer: almost all

Question: And the “Cell growth inhibition effect” value [3]?
Answer: dose-dependent cell growth inhibition effects

Question: What about the “Cell growth inhibition effect” value [4] of the same compound?
Answer: dose-dependent cell growth inhibition effects

Question: Which “pH dependence of DOX release” value [5] does the source give for “benzaldehyde-modified hyaluronic acid-doxorubicin conjugate [HA-ABA-DOX]” here?
Answer: selective drug release at low pH

Question: And the “Concentration depressing cell viability compared with free DOX” value [1]?
Answer: depressed cell viability at lower concentrations

Question: What about the “Cell growth inhibition effect” value [1] of the same compound?
Answer: dose-dependent cell growth inhibition effects

Question: Which “PMX released (cumulative drug release)” value ([2]; PBS pH 5.0, 37° C., after 24 hours) does the source give for “benzaldehyde-modified hyaluronic acid-pemetrexed conjugate [HA-ABA-PMX]” here?
Answer: more than 80%

Question: And the PMX not released ([2]; PBS pH 7.4, 37° C., after 24 hours)?
Answer: 40%

Question: What about the “pH dependence of PMX release” value ([2]; pH 5.0, 6.0, 7.4) of the same compound?
Answer: released more rapidly at lower pH values

Question: And the “Concentration reducing cell viability compared with free PMX and HA-ADH-PMX” value [3]?
Answer: reduced cell viability at lower concentrations

Question: And the “Cell growth inhibition effect” value [3]?
Answer: dose-dependent cell growth inhibition effects

Question: What about the “Concentration reducing cell viability compared with free PMX and HA-ADH-PMX” value [4] of the same compound?
Answer: reduced cell viability at lower concentrations

Question: What about the “Cell growth inhibition effect” value [4] of the same compound?
Answer: dose-dependent cell growth inhibition effects

Question: Which results are given for “benzaldehyde-modified alginic acid-vancomycin conjugate [AL-ABA-Van]”?
Answer: Van released (cumulative release rate) ([6]; PBS pH 5.0, 37° C., after 10 hours): over 80%; Van not released ([6]; PBS pH 7.4, 37° C., after 10 hours): ~50%; pH dependence of Van release behavior ([6]; pH 5.0, 6.0, 7.4): released more rapidly the lower the pH

Question: Which Van released ([6]; control solutions, first 10 hours, pH 5.0, 6.0, 7.4) does the source give for `CN[C@H](CC(C)C)C(=O)N[C@H]1C(=O)N[C@@H](CC(N)=O)C(=O)N[C@H]2C(=O)N[C@H]3C(=O)N[C@H](C(=O)N[C@H](C(=O)O)c4cc(O)cc(O)c4-c4cc3ccc4O)[C@H](O)c3ccc(c(Cl)c3)Oc3cc2cc(c3O[C@@H]2O[C@H](CO)[C@@H](O)[C@H](O)[C@H]2O[C@H]2C[C@](C)(N)[C@H](O)[C@H](C)O2)Oc2ccc(cc2Cl)[C@H]1O` [Van, Vancomycin, reference compound] here?
Answer: almost all

Question: And the “pH dependence of Van release behavior” value ([6]; pH 5.0, 6.0, 7.4)?
Answer: no difference in release behavior depending on pH
